Laboratory results published in patent publication US9273043B2, “TRPV1 antagonists including dihydroxy substituent and uses thereof” (Purdue Pharma L.P., priority 2011, dated 2016).

Test system: neuropathic mechanical hyperalgesia after partial sciatic nerve ligation
Assay: Seltzer model (partial sciatic nerve ligation) of neuropathic pain, paw withdrawal threshold
Format: in vivo, rat
Conditions: for % Reversal [mean ± SEM]: rat; for % reversal of neuropathic hyperalgesia / % reversal of neuropathic hyperalgesia, maximum analgesic efficacy: rat Seltzer model
Method: In the Seltzer model, the partial sciatic nerve ligation model of neuropathic pain was used to produce neuropathic hyperalgesia in rats (Seltzer et al., “A Novel Behavioral Model of Neuropathic Pain Disorders Produced in Rats by Partial Sciatic Nerve Injury,” Pain 43:205-218 (1990)). Partial ligation of the left sciatic nerve was performed under isoflurane/O2 inhalation anaesthesia. Following induction of anesthesia, the left thigh of the male, 6-7 week old Jcl:SD rat was shaved. The sciatic nerve was exposed at high thigh level through a small incision and was carefully cleared of surrounding connective tissues at a site near the trocanther just distal to the point at which the posterior biceps semitendinosus nerve branches off of the common sciatic nerve. A 7-0 silk suture was inserted into the nerve with a ⅜ curved, reversed-cutting mini-needle and tightly ligated so that the dorsal ⅓ to ½ of the nerve thickness was held within the ligature. The wound was closed with a single muscle suture (4-0 nylon (Vicryl)) and vetbond tissue glue. The wound area was then dusted with antibiotic powder. Sham treatment involved an identical surgical procedure except that the sciatic nerve was not manipulated or ligated.
Following surgery, animals were weighed and placed on a warm pad until they recovered from anesthesia. Animals were then returned to their home cages until behavioral testing began. The animal was assessed for response to noxious mechanical stimuli by determining PWT for the rear paw of the animal, as described below, prior to surgery (baseline), then immediately prior to and 1, 3, 5, 7, and 24 hours after oral drug-in-vehicle administration (for day 1). Thus, the 24 hour time point was the start of the next day when drug-in-vehicle was again orally administered (24 hours after the prior administration). On days 2 and 3, PWT response was determined 1, 3, and 24 hours thereafter. Percentage reversal of neuropathic hyperalgesia at each of the specified times after administration was defined as: […]
Additionally, 10 mg/kg of pregabalin (Kemprotec, Ltd., Middlesbrough, UK), an anticonvulsant accepted for relief of particular neuropathic pain, in vehicle and the vehicle alone (0.5% weight/volume methylcellulose (400cP, Wako Pure Chemical Industries, Ltd.)/aqueous solution) were orally administered as controls. […] Ten rats that underwent partial ligation of the left sciatic nerve were used for each treatment group. Dunnett's test was conducted for the % reversal; values with p<0.05 were considered to be statistically significant.
Additionally, as a control the rats underwent sham surgery in which an identical surgical procedure was followed with regard to the right thigh but the sciatic nerve was neither manipulated nor ligated.
Response to Mechanical Stimuli as an Assessment of Mechanical Hyperalgesia: The paw pressure assay was used to assess mechanical hyperalgesia. […] Biochem. and Behavior 31:451-455 (1988). The maximum weight that could be applied to the hind paw was set at 250 g and the end point was taken as complete withdrawal of the paw. PWT was determined once for each rat at each time point and either only the affected (ipsilateral) paw was tested, or both the ipsilateral and contralateral (non-injured) paw were tested.

For `CC1CN(c2ncc(C(O)CO)cc2F)CCN1C(=O)Nc1nc2cc(F)ccc2s1.O=C(O)C=CC(=O)O` (centres unmarked), the “% Reversal [mean ± SEM]” value (1 mg/kg oral once daily, 1 hours (day 2) after administration) was 12.04 ± 4.92 %, the “% Reversal [mean ± SEM]” value (1 mg/kg oral once daily, 1 hours (day 3) after administration) was 6.44 ± 6.50% and the “% Reversal [mean ± SEM]” value (1 mg/kg oral once daily, 3 hours (day 2) after administration) was 12.84 ± 4.12 %. The “% Reversal [mean ± SEM]” value (1 mg/kg oral once daily, 3 hours (day 3) after administration) was 9.58 ± 5.23%, the “% Reversal [mean ± SEM]” value (1 mg/kg oral once daily, 24 hours (0 hrs day 2) after administration) was 0.71 ± 2.46% and the “% Reversal [mean ± SEM]” value (1 mg/kg oral once daily, 24 hours (0 hrs day 3) after administration) was 4.89 ± 2.68%. The “% Reversal [mean ± SEM]” value (1 mg/kg oral once daily, 24 hours (0 hrs day 4) after administration) was 0.51 ± 3.15%, the “% Reversal [mean ± SEM]” value (1 mg/kg oral, 1 hours (day 1) after administration) was 14.60 ± 4.26% and the “% Reversal [mean ± SEM]” value (1 mg/kg oral, 3 hours (day 1) after administration) was 17.04 ± 4.91 %. For the same compound, the “% Reversal [mean ± SEM]” value (1 mg/kg oral, 5 hours (day 1) after administration) was 11.39 ± 3.13 %, the “% Reversal [mean ± SEM]” value (1 mg/kg oral, 7 hours (day 1) after administration) was 3.04 ± 4.49% and the “% Reversal [mean ± SEM]” value (3 mg/kg oral once daily, 1 hours (day 2) after administration) was 12.57 ± 2.38 %. For the same compound, the “% Reversal [mean ± SEM]” value (3 mg/kg oral once daily, 1 hours (day 3) after administration) was 11.80 ± 3.29%, the “% Reversal [mean ± SEM]” value (3 mg/kg oral once daily, 3 hours (day 2) after administration) was 17.14 ± 5.38 % and the “% Reversal [mean ± SEM]” value (3 mg/kg oral once daily, 3 hours (day 3) after administration) was 17.34 ± 3.91 %. For the same compound, the “% Reversal [mean ± SEM]” value (3 mg/kg oral once daily, 24 hours (0 hrs day 2) after administration) was −5.34 ± 4.20%, the “% Reversal [mean ± SEM]” value (3 mg/kg oral once daily, 24 hours (0 hrs day 3) after administration) was −3.85 ± 4.61% and the “% Reversal [mean ± SEM]” value (3 mg/kg oral once daily, 24 hours (0 hrs day 4) after administration) was −1.95 ± 2.97%. The “% Reversal [mean ± SEM]” value (3 mg/kg oral, 1 hours (day 1) after administration) was 15.69 ± 4.62%, the “% Reversal [mean ± SEM]” value (3 mg/kg oral, 3 hours (day 1) after administration) was 18.39 ± 1.67 % and the “% Reversal [mean ± SEM]” value (3 mg/kg oral, 5 hours (day 1) after administration) was 12.22 ± 1.89 %. For the same compound, the “% Reversal [mean ± SEM]” value (3 mg/kg oral, 7 hours (day 1) after administration) was 7.65 ± 2.79%, the “% Reversal [mean ± SEM]” value (10 mg/kg oral once daily, 1 hours (day 2) after administration) was 27.41 ± 4.56 % and the “% Reversal [mean ± SEM]” value (10 mg/kg oral once daily, 1 hours (day 3) after administration) was 23.36 ± 4.69 %. The “% Reversal [mean ± SEM]” value (10 mg/kg oral once daily, 3 hours (day 2) after administration) was 29.12 ± 5.44 %, the “% Reversal [mean ± SEM]” value (10 mg/kg oral once daily, 3 hours (day 3) after administration) was 28.91 ± 5.72 % and the “% Reversal [mean ± SEM]” value (10 mg/kg oral once daily, 24 hours (0 hrs day 2) after administration) was 3.38 ± 3.97%. For the same compound, the “% Reversal [mean ± SEM]” value (10 mg/kg oral once daily, 24 hours (0 hrs day 3) after administration) was 2.87 ± 4.62%, the “% Reversal [mean ± SEM]” value (10 mg/kg oral once daily, 24 hours (0 hrs day 4) after administration) was 11.09 ± 3.45% and the “% Reversal [mean ± SEM]” value (10 mg/kg oral, 1 hours (day 1) after administration) was 32.51 ± 5.00 %. For the same compound, the “% Reversal [mean ± SEM]” value (10 mg/kg oral, 3 hours (day 1) after administration) was 34.17 ± 5.60 %, the “% Reversal [mean ± SEM]” value (10 mg/kg oral, 5 hours (day 1) after administration) was 19.59 ± 3.04 % and the “% Reversal [mean ± SEM]” value (10 mg/kg oral, 7 hours (day 1) after administration) was 17.06 ± 2.95 %. For the same compound, the “% reversal of neuropathic hyperalgesia” value (oral 1 mg/kg once daily, day 2, 3 hour time point) was 12.84%, the “% reversal of neuropathic hyperalgesia, maximum analgesic efficacy” value (oral 1 mg/kg, single (day 1) administration) was 17.04% and the “% reversal of neuropathic hyperalgesia” value (oral 3 mg/kg once daily, day 2, 3 hour time point) was 17.14%. For the same compound, the “% reversal of neuropathic hyperalgesia” value (oral 3 mg/kg once daily, day 3, 3 hour time point) was 17.34%, the “% reversal of neuropathic hyperalgesia, maximum analgesic efficacy” value (oral 3 mg/kg, 3 h after day 1 administration) was 18.39% and the “% reversal of neuropathic hyperalgesia” value (oral 10 mg/kg once daily, day 2, 3 hour time point) was 29.12%. The “% reversal of neuropathic hyperalgesia” value (oral 10 mg/kg once daily, day 3, 3 hour time point) was 28.91% and the “% reversal of neuropathic hyperalgesia” value (oral 10 mg/kg, 3 h after day 1 administration (maximum)) was 34.17%.
